Results taken from US20250270209A1 (INTERLINE THERAPEUTICS, INC., priority 2022, published 2025).
pIC50: −log10 of the molar value.

Assays:
LRRK2 wild type enzyme = LRRK2 wild type enzyme (Homo sapiens, UniProt Q5S007); assay: Biochemical Assay: LRRK2 TR-FRET (LanthaScreen) kinase assay with LRRKtide substrate; conditions: LRRK2 Inhibition, Table 8
In short: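 Human wild-type LRRK2 (3 nM) preincubated 15 min with compound (11-point, 3-fold, top 10 μM), then reacted 120 min at 23 °C with 400 nM LRRKtide and 25 μM ATP, pH 8.0. Stopped with EDTA; Tb-anti-pLRRKtide TR-FRET read after 30 min.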

[1] = target: T1, wild type LRRK2 overexpressed in recombinant HEK-293T cells (Homo sapiens, UniProt Q5S007); assay: pS935 LRRK2 Cell Assay (HTRF, phospho-LRRK2 Ser935); type: cell-based; conditions: LRRK2 Inhibition, Table 8, 2 hours compound incubation
T1 construct: host or cells: HEK293T (transient transfection with pCMV-LRRK2 WT plasmid)
T1 sequence (Q5S007 whole entry): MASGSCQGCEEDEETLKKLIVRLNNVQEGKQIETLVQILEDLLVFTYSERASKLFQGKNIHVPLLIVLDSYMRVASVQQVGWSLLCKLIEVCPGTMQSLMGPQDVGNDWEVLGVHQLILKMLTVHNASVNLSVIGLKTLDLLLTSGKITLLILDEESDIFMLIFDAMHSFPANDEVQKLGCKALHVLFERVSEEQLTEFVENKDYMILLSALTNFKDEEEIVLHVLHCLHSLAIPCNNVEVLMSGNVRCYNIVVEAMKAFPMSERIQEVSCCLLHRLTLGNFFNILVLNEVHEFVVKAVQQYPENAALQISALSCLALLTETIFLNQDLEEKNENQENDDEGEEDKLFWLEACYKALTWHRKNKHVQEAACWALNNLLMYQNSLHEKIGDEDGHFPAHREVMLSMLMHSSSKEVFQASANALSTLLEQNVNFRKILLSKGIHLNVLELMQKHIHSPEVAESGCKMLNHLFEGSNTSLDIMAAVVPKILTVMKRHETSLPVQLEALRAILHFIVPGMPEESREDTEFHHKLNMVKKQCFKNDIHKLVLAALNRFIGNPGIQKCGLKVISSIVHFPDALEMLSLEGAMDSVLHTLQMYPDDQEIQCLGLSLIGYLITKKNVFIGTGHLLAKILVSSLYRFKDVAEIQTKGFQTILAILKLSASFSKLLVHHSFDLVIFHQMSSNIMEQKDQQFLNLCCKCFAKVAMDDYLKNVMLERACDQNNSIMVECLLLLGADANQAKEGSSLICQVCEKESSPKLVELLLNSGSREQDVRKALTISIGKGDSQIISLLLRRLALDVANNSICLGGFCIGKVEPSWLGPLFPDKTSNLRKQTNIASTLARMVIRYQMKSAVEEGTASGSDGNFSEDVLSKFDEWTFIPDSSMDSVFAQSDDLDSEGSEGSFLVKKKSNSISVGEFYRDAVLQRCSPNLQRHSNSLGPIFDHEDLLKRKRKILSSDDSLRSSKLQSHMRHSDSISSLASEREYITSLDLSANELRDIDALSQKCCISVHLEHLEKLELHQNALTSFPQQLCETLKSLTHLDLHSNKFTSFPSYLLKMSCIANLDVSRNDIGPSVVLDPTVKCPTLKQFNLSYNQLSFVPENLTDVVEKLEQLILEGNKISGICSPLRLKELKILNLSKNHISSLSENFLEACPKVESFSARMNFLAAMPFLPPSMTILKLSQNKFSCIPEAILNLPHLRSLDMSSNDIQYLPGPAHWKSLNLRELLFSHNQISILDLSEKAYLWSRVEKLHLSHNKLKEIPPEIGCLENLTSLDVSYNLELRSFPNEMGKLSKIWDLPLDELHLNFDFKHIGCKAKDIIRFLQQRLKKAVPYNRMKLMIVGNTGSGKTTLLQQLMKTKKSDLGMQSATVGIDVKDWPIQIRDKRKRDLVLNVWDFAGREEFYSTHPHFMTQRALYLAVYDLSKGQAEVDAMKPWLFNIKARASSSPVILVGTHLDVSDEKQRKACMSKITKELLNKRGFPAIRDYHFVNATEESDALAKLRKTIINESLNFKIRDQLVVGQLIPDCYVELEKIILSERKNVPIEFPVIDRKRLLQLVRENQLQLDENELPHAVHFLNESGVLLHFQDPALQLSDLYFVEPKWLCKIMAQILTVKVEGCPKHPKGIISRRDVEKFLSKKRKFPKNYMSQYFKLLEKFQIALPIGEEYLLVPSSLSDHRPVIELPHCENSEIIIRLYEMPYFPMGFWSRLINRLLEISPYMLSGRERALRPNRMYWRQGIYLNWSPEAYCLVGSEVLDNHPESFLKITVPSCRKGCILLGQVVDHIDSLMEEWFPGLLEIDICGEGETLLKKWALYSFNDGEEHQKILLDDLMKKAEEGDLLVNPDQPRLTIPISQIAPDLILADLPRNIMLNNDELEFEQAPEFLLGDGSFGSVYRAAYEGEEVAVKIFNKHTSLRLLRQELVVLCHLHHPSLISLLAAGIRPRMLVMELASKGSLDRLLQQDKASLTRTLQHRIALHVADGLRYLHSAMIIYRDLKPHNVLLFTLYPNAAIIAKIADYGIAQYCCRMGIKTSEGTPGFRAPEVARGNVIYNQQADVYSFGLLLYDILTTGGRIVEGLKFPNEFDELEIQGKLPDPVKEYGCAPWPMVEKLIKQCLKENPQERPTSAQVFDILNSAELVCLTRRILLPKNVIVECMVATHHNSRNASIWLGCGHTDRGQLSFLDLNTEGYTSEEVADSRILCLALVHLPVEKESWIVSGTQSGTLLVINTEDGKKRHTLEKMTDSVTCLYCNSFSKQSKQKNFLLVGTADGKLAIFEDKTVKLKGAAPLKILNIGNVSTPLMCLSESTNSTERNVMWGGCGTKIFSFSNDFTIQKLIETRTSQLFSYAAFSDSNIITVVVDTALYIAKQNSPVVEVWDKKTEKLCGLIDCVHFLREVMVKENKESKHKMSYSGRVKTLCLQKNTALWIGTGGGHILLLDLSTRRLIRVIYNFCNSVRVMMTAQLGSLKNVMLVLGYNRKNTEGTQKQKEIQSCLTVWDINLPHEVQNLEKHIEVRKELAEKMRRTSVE
In short: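 HEK-293T cells transiently transfected with wild-type LRRK2 for 24 h, plated overnight, then treated 2 h at 37° C with compound (top 10 μM, 3-fold, 9 doses, duplicates, 0.2% DMSO). Lysates probed overnight at 23° C by sandwich HTRF for pSer935; 665/615 nm ratio read.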

Sequence of LRRK2 wild type enzyme (Q5S007 whole entry): as above

How did the pIC50 (LRRK2 wild type enzyme) turn out when C[C@@H]1C[C@H](n2c(C3CC(=O)N(C4COC4)C3)nc3cnc4ccc(C#N)cc4c32)CCO1 (stereo partly drawn) [Compound 46, 1-[(2R,4R)-2-methyloxan-4-yl]-2-[1-(oxetan-3-yl)-5-oxopyrrolidin-3-yl]-1H-imidazo[4,5-c]quinoline-8-carbonitrile] was run?
Its pIC50 is 8.23.

And the pIC50 [1]?
The pIC50 was 5.88.

C[C@@H]1C[C@H](n2c([C@H]3CC(=O)N(c4cnn(C)c4)C3)nc3cnc4ccc(C#N)cc4c32)CCO1 [Compound 47, 2-[(3S)-1-(1-methyl-1H-pyrazol-4-yl)-5-oxopyrrolidin-3-yl]-1-[(2R,4R)-2-methyloxan-4-yl]-1H-imidazo[4,5-c]quinoline-8-carbonitrile] was tested. Which pIC50 (LRRK2 wild type enzyme) did it give?
Its pIC50 is 6.85.

What about the pIC50 [1] of the same molecule?
Its pIC50 is 5.01.

C[C@@H]1C[C@H](n2c([C@@H]3CC(=O)N(c4cnn(C)c4)C3)nc3cnc4ccc(C#N)cc4c32)CCO1 [Compound 48, 2-[(3R)-1-(1-methyl-1H-pyrazol-4-yl)-5-oxopyrrolidin-3-yl]-1-[(2R,4R)-2-methyloxan-4-yl]-1H-imidazo[4,5-c]quinoline-8-carbonitrile] was tested. Which pIC50 (LRRK2 wild type enzyme) did it give?
Its pIC50 is 9.04.

And the pIC50 [1]?
The pIC50 was 6.96.

C[C@@H]1C[C@H](n2c(C3CCN(CC4CC4)C(=O)C3)nc3cnc4ccc(C#N)cc4c32)CCO1 (stereo partly drawn) [Compound 49, 2-[1-(cyclopropylmethyl)-2-oxopiperidin-4-yl]-1-[(2R,4R)-2-methyloxan-4-yl]-1H-imidazo[4,5-c]quinoline-8-carbonitrile] was tested. Which pIC50 (LRRK2 wild type enzyme) did it give?
Its pIC50 is 7.82.

And the pIC50 [1]?
The pIC50 was 6.06.

Which results are given for C[C@@H]1C[C@H](n2c(C3CCC(=O)N(CC4CC4)C3)nc3cnc4ccc(C#N)cc4c32)CCO1 (stereo partly drawn) [Compound 50, 2-[1-(cyclopropylmethyl)-6-oxopiperidin-3-yl]-1-[(2R,4R)-2-methyloxan-4-yl]-1H-imidazo[4,5-c]quinoline-8-carbonitrile]?
pIC50 (LRRK2 wild type enzyme): 8.12; pIC50 [1]: 6.06

Which results are given for C[C@@H]1C[C@H](n2c(C3CC(=O)N([C@@H]4CCCOC4)C3)nc3cnc4ccc(C#N)cc4c32)CCO1 (stereo partly drawn) [Compound 51, 1-[(2R,4R)-2-methyloxan-4-yl]-2-{1-[(3R)-oxan-3-yl]-5-oxopyrrolidin-3-yl}-1H-imidazo[4,5-c]quinoline-8-carbonitrile]?
pIC50 (LRRK2 wild type enzyme): 8.52; pIC50 [1]: 6.51

With C[C@@H]1C[C@H](n2c(C3CC(=O)N([C@H]4CCCOC4)C3)nc3cnc4ccc(C#N)cc4c32)CCO1 (stereo partly drawn) [Compound 52, 1-[(2R,4R)-2-methyloxan-4-yl]-2-{1-[(3S)-oxan-3-yl]-5-oxopyrrolidin-3-yl}-1H-imidazo[4,5-c]quinoline-8-carbonitrile] as the molecule, how does the pIC50 (LRRK2 wild type enzyme) read?
The pIC50 was 8.54.

What about the pIC50 [1] of the same molecule?
The pIC50 was 6.40.

What does the source list for C[C@@H]1C[C@H](n2c(CC(=O)NCC3CC3)nc3cnc4ccc(C#N)cc4c32)CCO1 [Compound 54, 2-{8-cyano-1-[(2R,4R)-2-methyloxan-4-yl]-1H-imidazo[4,5-c]quinolin-2-yl}-N-(cyclopropylmethyl)acetamide]?
pIC50 (LRRK2 wild type enzyme): 9.47; pIC50 [1]: 7.83

With C[C@@H]1C[C@H](n2c(CS(=O)(=O)NCC3CC3)nc3cnc4ccc(C#N)cc4c32)CCO1 [Compound 55, 1-{8-cyano-1-[(2R,4R)-2-methyloxan-4-yl]-1H-imidazo[4,5-c]quinolin-2-yl}-N-(cyclopropylmethyl)methanesulfonamide] as the molecule, how does the pIC50 (LRRK2 wild type enzyme) read?
Its pIC50 is 8.64.

And the pIC50 [1]?
The pIC50 was 6.57.

How did the pIC50 (LRRK2 wild type enzyme) turn out when C[C@@H]1C[C@H](n2c(CC3CN(C(=O)c4ccccn4)C3)nc3cnc4ccc(C#N)cc4c32)CCO1 [Compound 56, 1-[(2R,4R)-2-methyloxan-4-yl]-2-{[1-(pyridine-2-carbonyl)azetidin-3-yl]methyl}-1H-imidazo[4,5-c]quinoline-8-carbonitrile] was run?
The pIC50 was 8.62.

And the pIC50 [1]?
The pIC50 was 6.80.

What does the source list for C[C@@H]1C[C@H](n2c(CC3CN(C(=O)c4cnn(C)c4)C3)nc3cnc4ccc(C#N)cc4c32)CCO1 [Compound 60, 2-{[1-(1-methyl-1H-pyrazole-4-carbonyl)azetidin-3-yl]methyl}-1-[(2R,4R)-2-methyloxan-4-yl]-1H-imidazo[4,5-c]quinoline-8-carbonitrile]?
pIC50 (LRRK2 wild type enzyme): 8.37; pIC50 [1]: 5.81

How did the pIC50 (LRRK2 wild type enzyme) turn out when C[C@@H]1C[C@H](n2c(CS(=O)(=O)C3CC3)nc3cnc4ccc(C5CC5)cc4c32)CCO1 [Compound 62, 2-[(cyclopropanesulfonyl)methyl]-8-cyclopropyl-1-[(2R,4R)-2-methyloxan-4-yl]-1H-imidazo[4,5-c]quinoline] was run?
Its pIC50 is 7.79.

And the pIC50 [1]?
Its pIC50 is 5.90.

CC(=O)N1CC(c2nc3cnc4ccc(C#N)cc4c3n2[C@@H]2CCO[C@H](C)C2)C1 [Compound 63, 2-(1-acetylazetidin-3-yl)-1-[(2R,4R)-2-methyloxan-4-yl]-1H-imidazo[4,5-c]quinoline-8-carbonitrile] was tested. Which pIC50 (LRRK2 wild type enzyme) did it give?
Its pIC50 is 7.91.

And the pIC50 [1]?
The pIC50 was 5.73.

C[C@@H]1C[C@H](n2c(CC3CN(S(C)(=O)=O)C3)nc3cnc4ccc(C#N)cc4c32)CCO1 [Compound 65, 2-[(1-methanesulfonylazetidin-3-yl)methyl]-1-[(2R,4R)-2-methyloxan-4-yl]-1H-imidazo[4,5-c]quinoline-8-carbonitrile] was tested. Which pIC50 (LRRK2 wild type enzyme) did it give?
Its pIC50 is 8.30.

What about the pIC50 [1] of the same molecule?
Its pIC50 is 6.28.

With C[C@@H]1C[C@H](n2c(C3CN(S(=O)(=O)C4CC4)C3)nc3cnc4ccc(C#N)cc4c32)CCO1 [Compound 66, 2-[1-(cyclopropanesulfonyl)azetidin-3-yl]-1-[(2R,4R)-2-methyloxan-4-yl]-1H-imidazo[4,5-c]quinoline-8-carbonitrile] as the molecule, how does the pIC50 (LRRK2 wild type enzyme) read?
The pIC50 was 8.47.

And the pIC50 [1]?
Its pIC50 is 6.28.

How did the pIC50 (LRRK2 wild type enzyme) turn out when C[C@@H]1C[C@H](n2c(C3CN(S(C)(=O)=O)C3)nc3cnc4ccc(C#N)cc4c32)CCO1 [Compound 67, 2-(1-methanesulfonylazetidin-3-yl)-1-[(2R,4R)-2-methyloxan-4-yl]-1H-imidazo[4,5-c]quinoline-8-carbonitrile] was run?
The pIC50 was 8.52.

And the pIC50 [1]?
The pIC50 was 6.30.

C[C@@H]1C[C@H](n2c(C3CN(C(=O)C4CC4)C3)nc3cnc4ccc(C#N)cc4c32)CCO1 [Compound 68, 2-(1-cyclopropanecarbonylazetidin-3-yl)-1-[(2R,4R)-2-methyloxan-4-yl]-1H-imidazo[4,5-c]quinoline-8-carbonitrile] was tested. Which pIC50 (LRRK2 wild type enzyme) did it give?
Its pIC50 is 8.13.

And the pIC50 [1]?
Its pIC50 is 5.94.

Which results are given for CC1CC(n2c(CC3CNC3)nc3cnc4ccc(C#N)cc4c32)CCO1 (centres unmarked) [Compound 70, 2-[(azetidin-3-yl)methyl]-1-(2-methyloxan-4-yl)-1H-imidazo[4,5-c]quinoline-8-carbonitrile]?
pIC50 (LRRK2 wild type enzyme): 8.04; pIC50 [1]: 5.43

C[C@@H]1C[C@H](n2c([C@@H]3CCC(=O)N3)nc3cnc4ccc(C#N)cc4c32)CCO1 [Compound 71, 1-[(2R,4R)-2-methyloxan-4-yl]-2-[(2S)-5-oxopyrrolidin-2-yl]-1H-imidazo[4,5-c]quinoline-8-carbonitrile] was tested. Which pIC50 (LRRK2 wild type enzyme) did it give?
Its pIC50 is 8.26.

And the pIC50 [1]?
The pIC50 was 5.32.

Which results are given for C[C@@H]1C[C@H](n2c([C@H]3CNC(=O)C3)nc3cnc4ccc(C#N)cc4c32)CCO1 [Compound 72, 1-[(2R,4R)-2-methyloxan-4-yl]-2-[(3R)-5-oxopyrrolidin-3-yl]-1H-imidazo[4,5-c]quinoline-8-carbonitrile]?
pIC50 (LRRK2 wild type enzyme): 8.73; pIC50 [1]: 5.44

With C[C@@H]1C[C@H](n2c(CC3CN(C(=O)OC(C)(C)C)C3)nc3cnc4ccc(C#N)cc4c32)CCO1 [Compound 73, tert-butyl 3-({8-cyano-1-[(2R,4R)-2-methyloxan-4-yl]-1H-imidazo[4,5-c]quinolin-2-yl}methyl)azetidine-1-carboxylate] as the molecule, how does the pIC50 (LRRK2 wild type enzyme) read?
Its pIC50 is 8.41.

What about the pIC50 [1] of the same molecule?
The pIC50 was 6.60.

What does the source list for C[C@@H]1C[C@H](n2c(CS(=O)(=O)C3CC3)nc3cnc4ccc(C#N)cc4c32)CCO1 [Compound 74, 2-[(cyclopropanesulfonyl)methyl]-1-[(2R,4R)-2-methyloxan-4-yl]-1H-imidazo[4,5-c]quinoline-8-carbonitrile]?
pIC50 (LRRK2 wild type enzyme): 8.23; pIC50 [1]: 6.37

C[C@@H]1C[C@H](n2c(CN3CCCS3(=O)=O)nc3cnc4ccc(C#N)cc4c32)CCO1 [Compound 75, 2-[(1,1-dioxo-126,2-thiazolidin-2-yl)methyl]-1-[(2R,4R)-2-methyloxan-4-yl]-1H-imidazo[4,5-c]quinoline-8-carbonitrile] was tested. Which pIC50 (LRRK2 wild type enzyme) did it give?
Its pIC50 is 7.95.

And the pIC50 [1]?
The pIC50 was 6.23.

C[C@@H]1C[C@H](n2c(CN3CCC(C(=O)O)C3)nc3cnc4ccc(C#N)cc4c32)CCO1 (stereo partly drawn) [Compound 77, 1-({8-cyano-1-[(2R,4R)-2-methyloxan-4-yl]-1H-imidazo[4,5-c]quinolin-2-yl}methyl)pyrrolidine-3-carboxylic acid] was tested. Which pIC50 (LRRK2 wild type enzyme) did it give?
Its pIC50 is 7.47.

And the pIC50 [1]?
The pIC50 was 5.29.

C[C@@H]1C[C@H](n2c(CN3CCOCC3=O)nc3cnc4ccc(C#N)cc4c32)CCO1 [Compound 78, 1-[(2R,4R)-2-methyloxan-4-yl]-2-[(3-oxomorpholin-4-yl)methyl]-1H-imidazo[4,5-c]quinoline-8-carbonitrile] was tested. Which pIC50 (LRRK2 wild type enzyme) did it give?
Its pIC50 is 7.91.

What about the pIC50 [1] of the same molecule?
The pIC50 was 6.00.

What does the source list for C[C@@H]1C[C@H](n2c(CN3CCCCC3=O)nc3cnc4ccc(C#N)cc4c32)CCO1 [Compound 79, 1-[(2R,4R)-2-methyloxan-4-yl]-2-[(2-oxopiperidin-1-yl)methyl]-1H-imidazo[4,5-c]quinoline-8-carbonitrile]?
pIC50 (LRRK2 wild type enzyme): 7.97; pIC50 [1]: 6.09

Which results are given for C[C@@H]1C[C@H](n2c(CN3CCCC3=O)nc3cnc4ccc(C#N)cc4c32)CCO1 [Compound 80, 1-[(2R,4R)-2-methyloxan-4-yl]-2-[(2-oxopyrrolidin-1-yl)methyl]-1H-imidazo[4,5-c]quinoline-8-carbonitrile]?
pIC50 (LRRK2 wild type enzyme): 8.37; pIC50 [1]: 6.35

How did the pIC50 (LRRK2 wild type enzyme) turn out when C[C@@H]1C[C@H](n2c(CC(=O)N(C)CC(F)(F)F)nc3cnc4ccc(C#N)cc4c32)CCO1 [Compound 81, 2-{8-cyano-1-[(2R,4R)-2-methyloxan-4-yl]-1H-imidazo[4,5-c]quinolin-2-yl}-N-methyl-N-(2,2,2-trifluoroethyl)acetamide] was run?
The pIC50 was 7.98.

What about the pIC50 [1] of the same molecule?
Its pIC50 is 6.14.
